Reference: ChEMBL document CHEMBL1152952, “Synthesis and pharmacological evaluation of 1,2,3,4-tetrahydropyrazino[1,2-a]indole and 2-[(phenylmethylamino)methyl]-1H-indole analogues as novel melatoninergic ligands” (Bioorg Med Chem, 2009)
Activity calls are given as the source filed them. The rule behind the calls is not given here.

Assays:
[1] = target: T1, Melatonin receptor type 1B (Homo sapiens, UniProt P49286); experiment: Displacement of 2-[125I]iodomelatonin from human MT2 receptor expressed in CHO cells by gamma counting; type: cell-based
T1 sequence (P49286 whole entry): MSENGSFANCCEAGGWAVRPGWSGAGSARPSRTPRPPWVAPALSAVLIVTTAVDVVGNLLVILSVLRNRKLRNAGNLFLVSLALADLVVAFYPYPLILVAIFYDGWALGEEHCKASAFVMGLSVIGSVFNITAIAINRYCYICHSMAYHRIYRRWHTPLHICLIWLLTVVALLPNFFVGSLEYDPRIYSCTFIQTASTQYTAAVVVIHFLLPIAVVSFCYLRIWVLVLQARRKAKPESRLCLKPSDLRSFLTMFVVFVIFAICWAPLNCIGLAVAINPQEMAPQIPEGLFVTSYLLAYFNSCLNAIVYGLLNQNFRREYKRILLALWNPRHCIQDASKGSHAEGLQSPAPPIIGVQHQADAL

[2] = target: T2, Melatonin receptor type 1A (Homo sapiens, UniProt P48039); experiment: Displacement of 2-[125I]iodomelatonin from human MT1 receptor expressed in CHO cells by gamma counting; type: cell-based
T2 sequence (P48039 whole entry): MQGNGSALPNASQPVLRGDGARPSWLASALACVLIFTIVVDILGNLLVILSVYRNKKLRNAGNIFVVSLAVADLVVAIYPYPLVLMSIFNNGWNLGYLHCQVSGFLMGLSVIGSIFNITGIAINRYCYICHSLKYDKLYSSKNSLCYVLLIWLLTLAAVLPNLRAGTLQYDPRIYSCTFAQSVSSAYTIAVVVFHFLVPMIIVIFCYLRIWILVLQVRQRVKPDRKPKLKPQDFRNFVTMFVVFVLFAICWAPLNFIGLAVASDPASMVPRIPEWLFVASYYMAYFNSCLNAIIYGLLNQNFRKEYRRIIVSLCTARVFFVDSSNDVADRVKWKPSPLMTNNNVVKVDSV

[3] = target: T2, Melatonin receptor type 1A; experiment: Agonist activity at human MT1 receptor expressed in CHO cells assessed as inhibition of forskolin-induced cAMP accumulation; type: functional, cell-based
[4] = target: T2, Melatonin receptor type 1A; experiment: Agonist activity at human MT1 receptor expressed in CHO cells assessed as inhibition of forskolin-induced cAMP accumulation at 10 nM; type: functional, cell-based
[5] = target: T3, Melatonin receptor type 1B (Homo sapiens) (UniProt P49286); experiment: Intrinsic activity at human MT2 receptor expressed in CHO cells assessed as inhibition of forskolin-induced cAMP accumulation at 10 nM; type: functional, cell-based
T3 sequence (whole entry): T1 sequence (P49286 whole entry)

Homo sapiens = species: Homo sapiens; experiment: Selectivity ratio of Ki for human MT1 receptor to Ki for human MT2 receptor
[6] = target: T2, Melatonin receptor type 1A; experiment: Agonist activity at human MT1 receptor expressed in CHO cells assessed as inhibition of forskolin-induced cAMP accumulation at 1 uM; type: functional, cell-based

Structure (SMILES) | Ki ([1]; read-out: pKi (converted)) | Ki ([2]; read-out: pKi (converted)) | Ratio Ki (Homo sapiens) | also measured
COc1ccc(N(C)Cc2[nH]c3ccc(OC)cc3c2CCNC(C)=O)cc1 | – | – | – | Ki ([1]; read-out: Ki): 9 nM; Ki ([2]; read-out: Ki): 8 nM
CCCC(=O)NCCc1c2n(c3ccc(OC)cc13)CCN(C)C2 | 6.92 nM | 6.61 nM | – | IC50 [3]: 3.14 nM; inhibition [4]: 12%; Activity [5]: inactive
COc1ccc2c(c1)CC1Cn3c(c(CCNC(C)=O)c4cc(OC)ccc43)CN21 (centres undefined) | – | – | 4.4 | –
CCN(C)Cc1[nH]c2ccc(OC)cc2c1CCNC(C)=O | 224 nM | 1000 nM | – | –
CCCC(=O)NCCc1c2n(c3ccccc13)CCN(C)C2 | 85.1 nM | 257 nM | – | –
COc1ccc2c(c1)c(CCNC(C)=O)c1n2CCN(C)C1 | 7.76 nM | 11.7 nM | – | –
COc1ccc2c(c1)c(CCNC(C)=O)c1n2CCCN(C)C1 | 891 nM | 5620 nM | 6 | –
COc1ccc2[nH]c(CN(C)Cc3ccccc3)c(CCNC(C)=O)c2c1 | 661 nM | 1290 nM | – | –
COc1ccc2[nH]c(CN(C)c3ccc(C(F)(F)F)cc3)c(CCNC(C)=O)c2c1 | – | – | – | Ki ([1]; read-out: Ki): 63 nM; Ki ([2]; read-out: Ki): 111 nM

Now from value to compound, other results behind:

Ki ([1]; read-out: pKi (converted)) | Ki ([2]; read-out: pKi (converted)) | Ratio Ki (Homo sapiens) | Structure (SMILES) | also measured
2.29 nM | 15.5 nM | 8 | COc1ccc2[nH]c(CN(C)c3ccccc3)c(CCNC(C)=O)c2c1 | inhibition [6]: 60%; Activity [5]: inactive
42.7 nM | 257 nM | 6 | COc1ccc2[nH]c(CN(C)c3ccc(Cl)cc3)c(CCNC(C)=O)c2c1 | –
